Key:
Type in all cases: functional
Mus musculus [1] = assay: Antihyperglycemic activity in NIDDM db/db mouse model assessed as body weight per mouse at 0.5 mg/kg, qd after 24 hrs
Mus musculus [2] = assay: Antihyperglycemic activity in NIDDM db/db mouse model assessed as change in plasma glucose level at 0.5 mg/kg, qd after 3 hrs relative to pre-dosed control
Mus musculus [3] = assay: Antihyperglycemic activity in NIDDM db/db mouse model assessed as food intake per mouse at 0.5 mg/kg, qd
Mus musculus [4] = assay: Antihyperglycemic activity in NIDDM db/db mouse model assessed as change in plasma glucose level at 0.5 mg/kg, qd after 27 hrs relative to pre-dosed control

SMILES: CCCCC/C=C/C=C/[C@]12O[C@@H]3[C@@H]4[C@@H]5O[C@]5(CO)[C@@H](O)[C@]5(O)C(=O)C(C)=C[C@H]5[C@@]4(O1)[C@H](COC(=O)CC(C)C)[C@H](OC(=O)CC(C)C)[C@]3([C@]1(C)CO1)O2 [MAPROUNEACIN]
- Activity (Mus musculus [1]): 37.8 g
- Activity (Mus musculus [2]): -254 mg/dL
- Activity (Mus musculus [3]): 0.1 g
- Activity (Mus musculus [4]): -246 mg/dL

— ChEMBL document CHEMBL1157271, “Maprouneacin, a new daphnane diterpenoid with potent antihyperglycemic activity from Maprounea africana” (1999)
